Results reported in patent publication US5312749A, “Industrial alkaline protease from shipworm bacterium” (The United States of America as represented by the …, priority 1992, dated 1994).
Where a name gives a salt, the structure may show the parent alone. Read-outs that look alike come from different tables or passages of the source.

Tests used:
[1] = tested on: alkaline protease from shipworm bacterium; assay: Inhibition of alkaline protease: preincubation with inhibitor, then azocasein assay; assay type: biochemical, bacterial symbiont of the shipworm Psiloteredo healdi; conditions: for Activity (%): assay 42° C., pH 9.0, 0.2M NaCl
Procedure: The protease purification was monitored by assaying for proteolytic activity and protein concentration after each step. Proteolytic activity was determined in duplicate assays employing azocasein for the substrate, as described by Cotta et al. [Applied Environmental Microbiology, vol. 52, 51-58 (1986)]. Units represent μg of azocasein digested per hour. Protein concentrations were determined by the method of Bradford [Analytical Biochemistry, […] (1976)] with bovine serum albumin as a standard.
Several compounds known to inhibit various proteases were examined for their effect on the activity of the purified enzyme from Example 2 (Table II). The protease was incubated prior to assay for 1 hr at 25° C. All assays were measured at 42° C. and pH 9.0 in 0.2M NaCl buffered with 100 mM bis Tris propane.

[2] = tested on: alkaline protease from shipworm bacterium; assay: as above; assay type: biochemical, bacterial symbiont of the shipworm Psiloteredo healdi; conditions: inhibitor 0.1%; preincubation 1 hr at 42° C.; assay 42° C., pH 9.0, 0.2M NaCl
[3] = inhibitor 10 mM, preincubated 1 hr at 25° C., 100% = 154 units/ml
[4] = inhibitor 0.1 mM, preincubated 1 hr at 25° C., 100% = 154 units/ml
[5] = inhibitor 1 mM, preincubated 1 hr at 25° C., 100% = 154 units/ml

| Compound | effect on the activity of the protease (in words) [1] | Activity (%) [1, 3] [%] | Activity (%) [1, 4] [%] | Activity (%) [1, 5] [%] | also measured |
| --- | --- | --- | --- | --- | --- |
| Cc1ccc2ccc3ccc(C)nc3c2n1 [Neocuproine HCl] | little effect | 99 |  |  |  |
| O=S(=O)(F)Cc1ccccc1 [Phenylmethanesulphonyl fluoride] | does not inhibit activity | 102 | 93 | 98 |  |
| O=C(O)CN(CCN(CC(=O)O)CC(=O)O)CC(=O)O [EDTA (disodium salt), EDTA] | little effect | 102 |  |  |  |
| NCCCCCC(=O)O [ε-Amino-n-caproic acid] | unaffected |  |  |  | Activity (%) ([1]; inhibitor 100 μg, preincubated 1 hr at 25° C.): 101%; Activity (%) ([1]; inhibitor 500 μg, preincubated 1 hr at 25° C.): 99% |
| O.O.O.O.[Na+].[O-]B1OO1 [Sodium perborate tetrahydrate] |  |  |  |  | Activity (%) [2]: 117%; Activity (%) ([1]; inhibitor 0.1%, preincubation 1 hr at 25° C.): 119%; effect on the activity of the protease (in words) ([1]; listed as perborate): protease activity stimulation; effect on the activity of the protease (in words) ([1]; listed as sodium perborate): little effect; effect on the activity of the protease (in words) ([1]; listed as sodium perborate tetrahydrate): apparent enhancement of protease activity |
| [Cl][Cu][Cl] [CuCl2] |  | 94 | 97 |  |  |
| [Cl][Hg][Cl] [HgCl2] |  | 8 | 66 |  |  |
| Cc1ccc(S(=O)(=O)N[C@@H](Cc2ccccc2)C(=O)CCl)cc1 [TPCK, tosylamide phenylethyl chloromethyl ketone] | unaffected | 100 | 94 | 99 |  |
| Cc1ccc(S(=O)(=O)N[C@@H](CCCCN)C(=O)CCl)cc1 [TLCK, tosyl-1-lysine chloromethyl ketone] | significantly reduces the activity at low concentrations and abolishes it at high concentrations | 7 | 47 | 20 |  |
| NC(=O)CI [Iodoacetamide] | little effect | 100 | 102 | 102 |  |
